Experiment [1] has as its system unselected cord blood mononuclear cell population. Kind of experiment: Lymphocyte subsets (FACS) in unselected cord blood mononuclear cell cultures. The note with it: three weeks. Format: cell-based, human. The protocol: 1. Total mononuclear cell fraction was cultured in culture bags (American Fluoroseal Co. Gaithersburg, Md., USA), T-Flasks or 24 well plates at a concentration of 0.5−2×10^6 cells/ml in MEMα comprising 10% FCS or CellGro SCGM (Cell Genix) comprising 5-10% Human Serum/LiforCell® FBS Replacement (Lifeblood Products) containing the following human recombinant cytokines:, interleukin-2 (IL-2) (5-50 ng/ml), interleukin-15 (IL-15), interleukin7 (IL7), interleukin 21 (IL21), FLT-3 or SCF or FLT3 and SCF (Perpo Tech, Inc., Rocky Hill, N.J., USA), with or without OKT-3 (10-50 ng/ml), with or without nicotinamide (0.5-10 mM), and incubated at 37° C. in a humidified atmosphere of 5% CO2 in air. When OKT-3 was used in the culture the cultures were centrifuged after 5-7 days and the cells were resuspended with the same medium excluding the OKT-3. All cultures are topped weekly or twice a week with the same volume of fresh medium containing the growth factors with or without nicotinamide. For counting, the cells were stained with trypan blue. At various time points, samples were taken to assay the relative fractions of NK cells, CD56+CD3−, CD56+CD3+, CD34+CD56+, CD56+CD16+ and/or CD56+ NKG2A cells. Cell morphology was determined on cytospin (Shandon, Pittsburgh, Pa., USA) prepared smears stained with May-Grunwald/Giemsa solutions.
The cells were washed with a PBS solution containing 1% BSA, and stained (at 4° C. for 30 min) with fluorescein isothiocyanate (FITC)- or phycoerythrin (PE)-conjugated antibodies or allophycocyanin (APC). The cells were then washed in the above buffer and analyzed using a FACScalibur® flow cytometer (Becton Dickinson, San Jose, Calif., USA). The cells were passed at a rate of up to 1000 cells/second, using a 488 nm or 661 nm argon laser beam as the light source for excitation. Emission of 10^4 cells was measured using logarithmic amplification, and analyzed using the CellQuest software (Becton Dickinson). Cells stained with FITC, PE and APC-conjugated isotype control antibodies were used to determine background fluorescence. […]

For experiment [2], the system named is peripheral blood NK (T-cell depleted) cells. Kind of experiment: Expansion of CD3+ or CD3+/CD19+ depleted peripheral blood NK cells in culture bags. Format: cell-based, human. Here is the method: For depletion procedure, total nuclear cells from umbilical cord blood (CB), bone marrow (BM) or peripheral blood (PB) cells were layered on a Ficoll-Hypaque gradient (1.077 g/mL; Sigma), and centrifuged at 800×g for 30 minutes for separation of the mononuclear cells. The cells in the interface layer were collected and washed three times in phosphate-buffered saline (PBS) (Biological Industries, Israel) containing 0.5% HSA. Optionally, cells are not separated on the Ficoll-Hypaque gradient but washed three times in phosphate-buffered saline (PBS) (Biological Industries) containing 0.5% HSA (“total mononuclear fraction”). CD3 cells were depleted using the CD3 cell isolation kit (Miltenyi Biotec Bergisch, Gladbach, Germany) and the entire CD3 negative cell fraction was cultured. Optionally, CD19 cells were also depleted using the CD19 cell isolation kit (Miltenyi Biotec Bergisch, Gladbach, Germany) and the CD3/CD19 negative (CD3/CD19 depleted) cell fraction was cultured. Optionally, RosetteSep Human CD3+ Cell Depletion Cocktail (Stem Cell Technologies, RosestteSep, Cat. No. 15661)] was used for CD3 depletion and the entire CD3 negative cell fraction was cultured. After negative depletion the cells were counted and characterized by FACS analysis.
3. CD3+ depleted, or CD3+/CD19+ depleted mononuclear cell fraction from PB, BM and CB were cultured in culture bags, T-Flasks or 24 well plates at a concentration of 1−1000×10^4 cells/ml in MEMα/10% FCS or CellGro SCGM (Cell Genix)/5% Human Serum/LiforCell® FBS Replacement (Lifeblood Products) containing the following human recombinant cytokines: interleukin-2 (IL-2) or and interleukin-15 (IL-15), with or without FLT-3 or SCF or FLT3 and SCF (5-50 ng/ml) (Perpo Tech, Inc., Rocky Hill, N.J., USA), all combinations, with or without nicotinamide and incubated at 37° C. in a humidified atmosphere of 5% CO2 in air. The cultures were topped weekly or twice a week with the same volume of fresh medium containing growth factors with or without nicotinamide. Cultures were later supplemented once or several times a week with IL-2 and or IL-2 and IL-15. To estimate number of cells in culture, cell samples were counted following staining with trypan blue. At various time points, samples are taken to FACS analysis to assay the relative fractions of NK cells, CD56+CD3−, CD56+CD3+, CD34+CD56+, CD56+CD16+ and/or CD56+ NKG2A cells.
In order to calculate the number of NK cells on day 0, the total number of cells seeded on day 0 was multiplied by the percent of CD56+/CD3− cells measured by the FACS on day 0.
To determine total number of cells on day 7, 14 and 21, the cell count/ml was multiplied by the volume of the culture medium. In order to determine the number of NK cells in culture, the total number of cells in culture was multiplied by the percent of CD56+/CD3− cells measured with the FACS on days 7, 14 or 21. To measure fold expansion, total number of NK cells on days 7, 14 and 21 was divided by total number of NK cells seeded in culture on day-0.

Where [3] appears, read: 0.5, 1, 2.5 and 5 mM nicotinamide.

We go through 1 compound from patent US20130011376A1, “Methods for Enhancing Natural Killer Cell Proliferation and Activity” (GAMIDA CELL LTD., priority 2009, published 2013).

As to `NC(=O)c1cccnc1` [nicotinamide], in experiment [1] (setting [3]), the “proliferation in culture of CD56+/CD3- NK cells” value was “dose-dependent nicotinamide-induced enhancement of proliferation” and the “proliferation in culture of CD56+/CD45+ cells” value was “dose-dependent nicotinamide-induced enhancement of proliferation”. Also, in experiment [1] (0.5 to 5 mM nicotinamide, dose-dependent), the “CD3+ CD56- T cell growth” value is recorded as “inhibition”. Also, the “NK expansion relative to control cultures without nicotinamide” value in experiment [2] (2.5 mM and 5 mM nicotinamide, after 14 and 21 days, IL-2 or IL-2+IL-15) is “significantly higher”. For the same compound, the “CD56+CD3- NK cell proliferation” value in experiment [2] (2.5 mM and 5 mM, 21 days, seeding 2-, 5-, and 10x10^5 cells) was “profound enhancement”. Moreover, the “NK (CD56+CD3-) cells among cells in culture” value in experiment [2] (2-3 weeks in culture with nicotinamide, seeded 2-10% NK cells) is reported as “more than 90%”. In addition, in experiment [2] (2.5 and 5 mM nicotinamide, 21 days post seeding), the “non-NK cell fraction vs control cultures” value is given as “smaller”. The “NK cell proliferation from day 14 to day 21” value in experiment [2] (grown with nicotinamide) is given as “continue to proliferate”.
